Target: T1, purified rat kidney enkephalinase (Rattus norvegicus, UniProt P07861)
T1 construct: Rat kidney enkephalinase was purified to apparent homogeneity; from tissue; host or cells: rat kidney (male rats, membrane fraction, Triton X-100 solubilised)
T1 sequence (P07861 1-750): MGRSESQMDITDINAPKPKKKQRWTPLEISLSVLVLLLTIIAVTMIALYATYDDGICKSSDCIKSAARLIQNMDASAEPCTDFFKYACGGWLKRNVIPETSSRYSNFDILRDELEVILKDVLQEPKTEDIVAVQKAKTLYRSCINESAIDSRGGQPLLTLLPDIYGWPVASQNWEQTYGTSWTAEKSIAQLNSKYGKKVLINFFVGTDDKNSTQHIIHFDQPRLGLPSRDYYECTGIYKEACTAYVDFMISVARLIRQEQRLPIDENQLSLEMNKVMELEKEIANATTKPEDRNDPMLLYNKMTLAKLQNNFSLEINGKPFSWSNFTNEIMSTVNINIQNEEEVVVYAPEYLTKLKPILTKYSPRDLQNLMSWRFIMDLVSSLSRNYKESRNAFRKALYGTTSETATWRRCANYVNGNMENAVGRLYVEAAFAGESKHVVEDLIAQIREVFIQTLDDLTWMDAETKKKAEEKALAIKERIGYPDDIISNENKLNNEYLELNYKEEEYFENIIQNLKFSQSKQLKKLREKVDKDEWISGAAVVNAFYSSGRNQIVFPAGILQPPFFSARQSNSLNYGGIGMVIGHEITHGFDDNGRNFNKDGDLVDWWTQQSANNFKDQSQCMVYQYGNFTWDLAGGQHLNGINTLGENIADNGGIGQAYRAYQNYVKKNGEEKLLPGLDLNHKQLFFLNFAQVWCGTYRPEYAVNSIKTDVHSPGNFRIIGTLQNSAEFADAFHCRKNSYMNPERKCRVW
Assay: HPLC analysis of the hydrolysis of peptides by enkephalinase, without and with thiorphan
Assay type: biochemical
Details: 100 nM thiorphan; peptides 1 mM, 1 hr at 37° C., 5 ng enzyme

## O=C(O)CNC(=O)C(CS)Cc1ccccc1 (stereo not shown) [Thiorphan]
  inhibition of the hydrolysis of all substrates: completely inhibited
